target: T1, HDAC6 (Homo sapiens, UniProt Q9UBN7); experiment: In vitro histone deacetylase assay: enzymatic HDAC6 assay by electrophoretic mobility shift; format: biochemical; conditions: full length human recombinant HDAC6 1 nM, 2 μM peptide substrate RHKK(Ac)-NH2, 25° C., 12 concentrations; read-out: Inhibitory Concentration (IC50) against HDAC6, Activity Range
T1 construct: Full length human recombinant HDAC6 protein; made in house
T1 sequence (Q9UBN7 1-1215): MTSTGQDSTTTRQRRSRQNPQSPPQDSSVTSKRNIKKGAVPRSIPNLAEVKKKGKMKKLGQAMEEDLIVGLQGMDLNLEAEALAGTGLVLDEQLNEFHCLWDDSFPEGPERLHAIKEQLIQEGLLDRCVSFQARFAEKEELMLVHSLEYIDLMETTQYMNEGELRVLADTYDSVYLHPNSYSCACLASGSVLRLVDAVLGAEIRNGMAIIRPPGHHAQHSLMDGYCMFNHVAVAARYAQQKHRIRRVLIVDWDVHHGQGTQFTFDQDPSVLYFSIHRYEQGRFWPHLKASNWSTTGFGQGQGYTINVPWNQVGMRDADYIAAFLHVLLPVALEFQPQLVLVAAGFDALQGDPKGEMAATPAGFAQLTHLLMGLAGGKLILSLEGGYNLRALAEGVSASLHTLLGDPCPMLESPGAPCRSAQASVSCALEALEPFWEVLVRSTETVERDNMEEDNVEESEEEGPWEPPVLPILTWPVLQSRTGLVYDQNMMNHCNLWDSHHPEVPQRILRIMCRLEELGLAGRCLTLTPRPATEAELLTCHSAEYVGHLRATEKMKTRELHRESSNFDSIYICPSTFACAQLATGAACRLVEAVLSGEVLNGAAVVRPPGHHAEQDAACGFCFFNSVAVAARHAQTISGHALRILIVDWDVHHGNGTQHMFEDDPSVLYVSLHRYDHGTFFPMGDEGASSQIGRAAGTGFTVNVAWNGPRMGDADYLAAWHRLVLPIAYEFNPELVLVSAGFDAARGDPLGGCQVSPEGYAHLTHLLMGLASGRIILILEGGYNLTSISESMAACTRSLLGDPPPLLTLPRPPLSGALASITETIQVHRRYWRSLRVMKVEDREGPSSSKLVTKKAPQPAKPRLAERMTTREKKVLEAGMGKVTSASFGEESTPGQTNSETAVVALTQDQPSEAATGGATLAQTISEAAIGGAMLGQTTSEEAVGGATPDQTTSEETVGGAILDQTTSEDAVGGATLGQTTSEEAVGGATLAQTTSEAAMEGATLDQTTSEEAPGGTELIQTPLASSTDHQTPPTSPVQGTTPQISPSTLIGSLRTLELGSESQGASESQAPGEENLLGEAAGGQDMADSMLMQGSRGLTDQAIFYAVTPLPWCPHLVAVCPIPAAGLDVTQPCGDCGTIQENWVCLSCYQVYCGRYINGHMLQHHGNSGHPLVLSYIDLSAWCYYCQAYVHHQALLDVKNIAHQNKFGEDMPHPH
Protocol: The enzymatic HDAC6 assay was performed using electrophoretic mobility shift assay. […] The enzymatic reactions were assembled in 384-well plates in a total volume of 25 μL of a reaction buffer comprising. 100 mM HEPES, pH 7.5, 25 mM KCl, 0.1% bovine serum albumin, 0.01% Triton X-100, 1% DMSO (from compounds), 2 μM of the fluorescently labeled peptide substrate, and enzyme. The enzyme was added at a final concentration of 1 nM. The peptide substrate RHKK(Ac)-NH2 was used. The compounds were tested at 12 concentrations spaced by 3× dilution intervals. Negative control samples (0%-inhibition in the absence of inhibitor) and positive control samples (100%-inhibition) were assembled in replicates of four in each assay plate. The reactions were incubated at 25° C. and quenched by the addition of 45 μL of termination buffer (100 mM HEPES, pH 7.5, 0.01% Triton X-100, 0.05% SDS).
The terminated assay plates were analyzed on LabChip® 3000 microfluidic electrophoresis instrument (Perkin Elmer/Caliper Life Sciences). The fluorescence intensity of the electrophoretically separated de-acetylated product and substrate peptide was measured. Activity in each sample was determined as the product to sum ratio (PSR):P/(S+P), where P is the peak height of the product peptide and S is the peak height of the substrate peptide. Percent inhibition (Pinh) is determined using the following equation:
Pinh=(PSR0%−PSRinh)/(PSR0%−PSR100%)*100, where PSRinh is the product sum ratio in the presence of inhibitor, PSR0% is the average product sum ration in the absence of inhibitor, and PSR100% is the average product sum ratio in 100%-inhibition control samples. The IC50 values of inhibitors were determined by fitting the %-inhibition curves with 4 parameter dose-response models using XLfit 4 software.

Compound	IC50 [nM]
O=C(NO)c1ccc2c(c1)OC[C@H](c1ccc(F)cc1)N(C(=O)C1CCOCC1)C2 [(S)-3-(4-fluorophenyl)-N-hydroxy-4-(tetrahydro-2H-pyran-4-carbonyl)-2,3,4,5-tetrahydrobenzo[f][1,4]oxazepine-8-carboxamide]	≤ 100
O=C(NO)c1ccc2c(c1)OC[C@H](c1ccccc1)N(C(=O)c1ccc(F)cc1)C2 [(S)-4-(4-fluorobenzoyl)-N-hydroxy-3-phenyl-2,3,4,5-tetrahydrobenzo[f][1,4]oxazepine-8-carboxamide]	≤ 100
O=C(NO)c1ccc2c(c1)OC[C@H](c1ccccc1)N(C(=O)C1CCCCC1)C2 [(S)-4-(cyclohexanecarbonyl)-N-hydroxy-3-phenyl-2,3,4,5-tetrahydrobenzo[f][1,4]oxazepine-8-carboxamide]	≤ 100
O=C(NO)c1ccc2c(c1)OC[C@H](c1ccccc1)N(C(=O)C1CCCC1)C2 [(S)-4-(cyclopentanecarbonyl)-N-hydroxy-3-phenyl-2,3,4,5-tetrahydrobenzo[f][1,4]oxazepine-8-carboxamide]	≤ 100
O=C(NO)c1ccc2c(c1)OC[C@H](c1ccccc1)N(C(=O)c1ccccn1)C2 [(S)-N-hydroxy-3-phenyl-4-picolinoyl-2,3,4,5-tetrahydrobenzo[f][1,4]oxazepine-8-carboxamide]	≤ 100
COC1(C(=O)N2Cc3ccc(C(=O)NO)cc3OC[C@@H]2c2ccccc2)CCCCC1 [(S)-N-hydroxy-4-(1-methoxycyclohexane-1-carbonyl)-3-phenyl-2,3,4,5-tetrahydrobenzo[f][1,4]oxazepine-8-carboxamide]	≤ 100
COC1(C(=O)N2Cc3ccc(C(=O)NO)cc3OC[C@@H]2c2ccccc2)CC1 [(S)-N-hydroxy-4-(1-methoxycyclopropane-1-carbonyl)-3-phenyl-2,3,4,5-tetrahydrobenzo[f][1,4]oxazepine-8-carboxamide]	≤ 100
CN1CCC(C(=O)N2Cc3ccc(C(=O)NO)cc3OC[C@@H]2c2ccccc2)CC1 [(S)-N-hydroxy-4-(1-methylpiperidine-4-carbonyl)-3-phenyl-2,3,4,5-tetrahydrobenzo[f][1,4]oxazepine-8-carboxamide]	≤ 100
COC(C)(C)C(=O)N1Cc2ccc(C(=O)NO)cc2OC[C@@H]1c1ccccc1 [(S)-N-hydroxy-4-(2-methoxy-2-methylpropanoyl)-3-phenyl-2,3,4,5-tetrahydrobenzo[f][1,4]oxazepine-8-carboxamide]	≤ 100
CO[C@H]1CC[C@H](C(=O)N2Cc3ccc(C(=O)NO)cc3OC[C@@H]2c2ccccc2)CC1 [(S)-N-hydroxy-4-((1r,4S)-4-methoxycyclohexane-1-carbonyl)-3-phenyl-2,3,4,5-tetrahydrobenzo[f][1,4]oxazepine-8-carboxamide]	≤ 100
CO[C@H]1CC[C@@H](C(=O)N2Cc3ccc(C(=O)NO)cc3OC[C@@H]2c2ccccc2)CC1 [(S)-N-hydroxy-4-((1s,4R)-4-methoxycyclohexane-1-carbonyl)-3-phenyl-2,3,4,5-tetrahydrobenzo[f][1,4]oxazepine-8-carboxamide]	≤ 100
O=C(NO)c1ccc2c(c1)OC[C@H](c1ccc(C(F)(F)F)cc1)N(C(=O)C1CCOCC1)C2 [(S)-N-hydroxy-4-(tetrahydro-2H-pyran-4-carbonyl)-3-(4-(trifluoromethyl)phenyl)-2,3,4,5-tetrahydrobenzo[f][1,4]oxazepine-8-carboxamide]	≤ 100
Cc1ccccc1[C@H]1COc2cc(C(=O)NO)ccc2CN1C(=O)C1CCOCC1 [(S)-N-hydroxy-4-(tetrahydro-2H-pyran-4-carbonyl)-3-(o-tolyl)-2,3,4,5-tetrahydrobenzo[f][1,4]oxazepine-8-carboxamide]	≤ 100
CC(C)C(=O)N1Cc2ccc(C(=O)NO)cc2OC[C@@H]1c1ccccc1 [(S)-N-hydroxy-4-isobutyryl-3-phenyl-2,3,4,5-tetrahydrobenzo[f][1,4]oxazepine-8-carboxamide]	≤ 100

Other lines, results leading:

IC50 [nM]	Compound
≤ 100	CC(=O)N1CCC(C(=O)N2Cc3ccc(C(=O)NO)cc3OC[C@@H]2c2ccccc2)CC1 [(S)-4-(1-acetylpiperidine-4-carbonyl)-N-hydroxy-3-phenyl-2,3,4,5-tetrahydrobenzo[f][1,4]oxazepine-8-carboxamide]
≤ 100	O=C(NO)c1ccc2c(c1)OC[C@H](c1ccccc1)N(C(=O)C1(F)CCOCC1)C2 [(S)-4-(4-fluorotetrahydro-2H-pyran-4-carbonyl)-N-hydroxy-3-phenyl-2,3,4,5-tetrahydrobenzo[f][1,4]oxazepine-8-carboxamide]
≤ 100	O=C(NO)c1ccc2c(c1)OC[C@H](c1ccccc1)N(C(=O)C1CCC1)C2 [(S)-4-(cyclobutanecarbonyl)-N-hydroxy-3-phenyl-2,3,4,5-tetrahydrobenzo[f][1,4]oxazepine-8-carboxamide]
≤ 100	CC(=O)N1Cc2ccc(C(=O)NO)cc2OC[C@@H]1c1ccccc1 [(S)-4-acetyl-N-hydroxy-3-phenyl-2,3,4,5-tetrahydrobenzo[f][1,4]oxazepine-8-carboxamide]
≤ 100	O=C(NO)c1ccc2c(c1)OC[C@H](c1ccccc1)N(C(=O)C1CCOCC1)C2 [(S)-N-hydroxy-3-phenyl-4-(tetrahydro-2H-pyran-4-carbonyl)-2,3,4,5-tetrahydrobenzo[f][1,4]oxazepine-8-carboxamide]
≤ 100	CC(C)(C)C(=O)N1Cc2ccc(C(=O)NO)cc2OC[C@@H]1c1ccccc1 [(S)-N-hydroxy-3-phenyl-4-pivaloyl-2,3,4,5-tetrahydrobenzo[f][1,4]oxazepine-8-carboxamide]
≤ 100	CC1(C(=O)N2Cc3ccc(C(=O)NO)cc3OC[C@@H]2c2ccccc2)CCOCC1 [(S)-N-hydroxy-4-(4-methyltetrahydro-2H-pyran-4-carbonyl)-3-phenyl-2,3,4,5-tetrahydrobenzo[f][1,4]oxazepine-8-carboxamide]
≤ 100	O=C(NO)c1ccc2c(c1)OC[C@H](c1ccccc1)N(C(=O)C1COC1)C2 [(S)-N-hydroxy-4-(oxetane-3-carbonyl)-3-phenyl-2,3,4,5-tetrahydrobenzo[f][1,4]oxazepine-8-carboxamide]
≤ 100	Cc1ccc([C@H]2COc3cc(C(=O)NO)ccc3CN2C(=O)C2CCOCC2)cc1 [(S)-N-hydroxy-4-(tetrahydro-2H-pyran-4-carbonyl)-3-(p-tolyl)-2,3,4,5-tetrahydrobenzo[f][1,4]oxazepine-8-carboxamide]
≤ 100	O=C(NO)c1ccc2c(c1)OC[C@H](c1ccccc1)N(C(=O)c1ccncc1)C2 [(S)-N-hydroxy-4-isonicotinoyl-3-phenyl-2,3,4,5-tetrahydrobenzo[f][1,4]oxazepine-8-carboxamide]
≤ 100	O=C(NO)c1ccc2c(c1)OC[C@H](c1ccccc1)N(C(=O)c1cccnc1)C2 [(S)-N-hydroxy-4-nicotinoyl-3-phenyl-2,3,4,5-tetrahydrobenzo[f][1,4]oxazepine-8-carboxamide]
≤ 100	COCC1(C(=O)N2Cc3ccc(C(=O)NO)cc3OC[C@@H]2c2ccccc2)CC1 [(S)—N-hydroxy-4-(1-(methoxymethyl)cyclopropane-1-carbonyl)-3-phenyl-2,3,4,5-tetrahydrobenzo[f][1,4]oxazepine-8-carboxamide]
